These results are taken from patent publication US20240100183A1, “COMPOSITIONS COMPRISING MOLECULES FOR CYSTIC FIBROSIS TREATMENT” (UNiversity of Iowa Research Foundation, priority 2020, published 2024).

The conditions of data set [1]: cited from earlier work; for aqueous (water) solubility: room temperature.
The conditions of data set [2]: oral 150 mg twice daily; cited from earlier work.
The nature of data set [3]: Phase solubility of ivacaftor in cyclodextrin solutions. The conditions noted are these: for solubility at 3 days: aqueous with cosolvent or surfactant or cyclodextrin, thermodynamic from solid. It counts as physicochemical. Here is the method: Excess amounts of powdered ivacaftor were suspended in different concentrations of different types of CD's (up to […] in the case of βCD, and up to […] in the case of αCD, γCD, and HPβCD). The suspensions were shaken at 3000 rpm at room temperature for 3 days. Then, samples were collected and filtered, and the concentration of ivacaftor was determined using HPLC, as described below. An Agilent HPLC workstation series 1100 (Agilent Technologies, Santa Clara, CA) was used for the analysis. The column used was Waters Symmetry C18 5 μm (4.6×150 mm), and the mobile phase consisted of 6:4 acetonitrile: water with 0.1% v/v trifluoroacetic acid (TFA) at a flow rate of 1 ml/min (at 25±2° C.). Detection was carried out using an Agilent Diode array detector (DAD) at 309 nm.

Data set [4] in a line: Ivacaftor solubility in the release medium. It counts as physicochemical. The conditions noted are these: release medium (polysorbate 80 in DPBS), aqueous with cosolvent or surfactant or cyclodextrin; 0.4% v/v polysorbate 80 in 1×DPBS, 37° C.

One may read the log P as a log measure of how a compound divides between an organic and an aqueous phase. One may read the half-life as the time needed for the level to fall by half in the phase considered. A word on the solubility: it is the dissolved amount per volume that the medium holds.

≈ marks a conversion by molar mass, not a printed value. Where “and” joins values, the source holds several entries; their conditions need not be identical. Equal values may be shown once. Read-outs that look alike come from different tables or passages of the source.

With `CC(C)(C)c1cc(C(C)(C)C)c(NC(=O)c2c[nH]c3ccccc3c2=O)cc1O` [Ivacaftor, N-(2,4-Di-tert-butyl-5-hydroxyphenyl)-4-oxo-1,4-dihydroquinoline-3-carboxamide], the “log P” value is recorded as 3.13 in data set [1] and 3.3 in data set [1] (listed as IVA). In addition, the “aqueous (water) solubility” value was “about 0.05 μg/ml” in data set [1] and under 0.05 µg/mL in data set [1] (listed as IVA). In data set [2], the half-life was 9 to 12 h. Moreover, the “solubility in βCD relative to aqueous solubility” value in data set [3] (10 μM βCD) is recorded as “about 24 times”. For the same molecule, the “solubility in γCD relative to aqueous solubility” value in data set [3] (25 μM γCD) is recorded as “about 10 times”. In addition, the “solubility in HPβCD relative to aqueous solubility” value in data set [3] (50 μM HPβCD) is “about 1000 times”. The “solubility in HPβCD relative to maximum βCD concentration” value in data set [3] (50 μM HPβCD vs 10 μM βCD) was “about 40 times”. Also, the “solubility in HPβCD relative to αCD and γCD” value in data set [3] (50 μM of each CD) was 100-150 times. Also, the solubility at 3 days in data set [3] (HPβCD solution, 50 μM HPβCD, room temperature, 3 days shaking, read-out: ivacaftor solubility in HPβCD solution) was determined as 50 µg/mL (≈ 127 µM); in data set [3] (βCD solution, 10 μM βCD, read-out: ivacaftor solubility in βCD solution), 1.2 µg/mL (≈ 3.06 µM); in data set [3] (γCD solution, 25 μM γCD, read-out: ivacaftor solubility in γCD solution) it was 0.5 µg/mL (≈ 1.27 µM). In addition, the “solubility in βCD relative to αCD and γCD” value in data set [3] (same concentration (10 μM)) is 5-6 times and 5-8 times. This molecule also had a solubility in data set [4] of 272 µg/mL (≈ 692 µM).
